Reference: ChEMBL document CHEMBL1201862, “PubChem BioAssay data set” (2004)
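Compound exposure: 48 hours, 5 concentrations, 96-well plates. GI50 = concentration required for 50% inhibition of growth.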 The source made the active and inactive calls. Rule as the data show it: active = GI50 up to about 1.1 µM and inactive = higher.

Key:
Test in all cases: DTP human tumour cell line panel, 48 h
[1] = tested on: RPMI-8226
[2] = tested on: RXF 393
[3] = tested on: KM12
[4] = tested on: SNB-19
[5] = tested on: NCI-H460
[6] = tested on: NCI/ADR-RES
[7] = tested on: NCI-H522
[8] = tested on: ACHN
[9] = tested on: TK-10
[10] = tested on: NCI-H226
[11] = tested on: CAKI-1
[12] = tested on: HL-60
[13] = tested on: OVCAR-8
[14] = tested on: UACC-62
[15] = tested on: HCC 2998
[16] = tested on: HOP-92
[17] = tested on: MCF7
[18] = tested on: A498
[19] = tested on: U-251
[20] = tested on: COLO 205

SMILES: CCOP(=O)(OCC)C(Cc1ccc(OC)c(OC)c1)N=C(c1ccccc1)c1ccccc1 (stereo not given)
- GI50 [1]: 18.8 µM (inactive)
- GI50 [2]: 61.4 µM (inactive)
- GI50 [3]: 36.4 µM (inactive)
- GI50 [4]: 63 µM (inactive)
- GI50 [5]: 34 µM (inactive)
- GI50 [6]: 44.7 µM (inactive)
- GI50 [7]: 22.8 µM (inactive)
- GI50 [8]: 41.6 µM (inactive)
- GI50 [9]: 40.8 µM (inactive)
- GI50 [10]: 88.1 µM (inactive)
- GI50 [11]: 67 µM (inactive)
- GI50 [12]: 31.3 µM (inactive)
- GI50 [13]: 42.9 µM (inactive)
- GI50 [14]: 68.7 µM (inactive)
- GI50 [15]: 24.6 µM (inactive)
- GI50 [16]: 37.9 µM (inactive)
- GI50 [17]: 24.7 µM (inactive)
- GI50 [18]: 56.8 µM (inactive)
- GI50 [19]: 46.1 µM (inactive)
- GI50 [20]: 18.9 µM (inactive)

SMILES: Nc1nc(Cl)cc(NCC2(CO)CC(CCc3ccccc3)C2)n1 (stereo not given)
- GI50 [1]: 2.9 µM (inactive)
- GI50 [2]: 24.1 µM (inactive)
- GI50 [3]: 83.9 µM (inactive)
- GI50 [4]: > 100 µM (inactive)
- GI50 [5]: 22.3 µM (inactive)
- GI50 [6]: 4.14 µM (inactive)
- GI50 [7]: 17.6 µM (inactive)
- GI50 [8]: > 29 µM (inactive)
- GI50 [9]: > 70.5 µM (inactive)
- GI50 [10]: > 100 µM (inactive)
- GI50 [11]: > 100 µM (inactive)
- GI50 [12]: 3.44 µM (inactive)
- GI50 [13]: 21.8 µM (inactive)
- GI50 [14]: > 58.6 µM (inactive)
- GI50 [15]: > 100 µM (inactive)
- GI50 [16]: > 28.8 µM (inactive)
- GI50 [17]: 9.16 µM (inactive)
- GI50 [18]: > 100 µM (inactive)
- GI50 [19]: > 100 µM (inactive)
- GI50 [20]: > 71.9 µM (inactive)

SMILES: COc1cc2c3c(c4ccc(O)cc4c2cc1OC)[C@@H](O)[C@@H]1CCCN1C3
- GI50 [1]: < 0.001 µM (active)
- GI50 [2]: 0.00123 µM (active)
- GI50 [3]: < 0.001 µM (active)
- GI50 [4]: < 0.001 µM (active)
- GI50 [5]: < 0.001 µM (active)
- GI50 [6]: 0.00166 µM (active)
- GI50 [7]: < 0.001 µM (active)
- GI50 [8]: < 0.001 µM (active)
- GI50 [9]: 0.00106 µM (active)
- GI50 [10]: < 0.001 µM (active)
- GI50 [11]: < 0.001 µM (active)
- GI50 [12]: 0.00116 µM (active)
- GI50 [13]: < 0.001 µM (active)
- GI50 [14]: 0.00105 µM (active)
- GI50 [15]: < 0.001 µM (active)
- GI50 [16]: 0.0011 µM (active)
- GI50 [17]: < 0.001 µM (active)
- GI50 [18]: < 0.001 µM (active)
- GI50 [19]: < 0.001 µM (active)
- GI50 [20]: 0.0178 µM (active)

SMILES: COC(=O)C1C(C(=O)OC)C1(Br)CBr (stereo not given)
- GI50 [1]: 16.5 µM (inactive)
- GI50 [2]: 19.1 µM (inactive)
- GI50 [3]: > 100 µM (inactive)
- GI50 [4]: > 100 µM (inactive)
- GI50 [5]: > 100 µM (inactive)
- GI50 [6]: > 100 µM (inactive)
- GI50 [7]: 3.54 µM (inactive)
- GI50 [8]: 25.8 µM (inactive)
- GI50 [9]: > 100 µM (inactive)
- GI50 [10]: > 100 µM (inactive)
- GI50 [11]: 17.8 µM (inactive)
- GI50 [12]: 43.2 µM (inactive)
- GI50 [13]: 32.5 µM (inactive)
- GI50 [14]: > 100 µM (inactive)
- GI50 [15]: > 100 µM (inactive)
- GI50 [16]: 22.9 µM (inactive)
- GI50 [17]: 46.1 µM (inactive)
- GI50 [18]: > 100 µM (inactive)
- GI50 [19]: > 100 µM (inactive)
- GI50 [20]: 20 µM (inactive)

SMILES: CN1C(=O)C2C=C3CCCCC3=CC2N(C)C1=O (stereo not given)
- GI50 [1]: > 100 µM (inactive)
- GI50 [2]: > 100 µM (inactive)
- GI50 [3]: > 100 µM (inactive)
- GI50 [4]: > 100 µM (inactive)
- GI50 [5]: > 100 µM (inactive)
- GI50 [6]: > 100 µM (inactive)
- GI50 [7]: > 100 µM (inactive)
- GI50 [8]: > 100 µM (inactive)
- GI50 [9]: > 100 µM (inactive)
- GI50 [10]: > 100 µM (inactive)
- GI50 [11]: > 100 µM (inactive)
- GI50 [12]: > 100 µM (inactive)
- GI50 [13]: > 100 µM (inactive)
- GI50 [14]: > 100 µM (inactive)
- GI50 [15]: > 100 µM (inactive)
- GI50 [16]: 99.1 µM (inactive)
- GI50 [17]: > 100 µM (inactive)
- GI50 [18]: > 100 µM (inactive)
- GI50 [19]: > 100 µM (inactive)
- GI50 [20]: > 100 µM (inactive)

SMILES: O=S(=O)(N/C(=N\O)Nc1ccc(Cl)cc1)c1ccccc1
- GI50 [1]: 4.13 µM (inactive)
- GI50 [2]: 2.77 µM (inactive)
- GI50 [3]: 24.2 µM (inactive)
- GI50 [4]: 22.8 µM (inactive)
- GI50 [5]: 13.4 µM (inactive)
- GI50 [6]: 12 µM (inactive)
- GI50 [7]: 1.03 µM (active)
- GI50 [8]: 12.2 µM (inactive)
- GI50 [9]: 14 µM (inactive)
- GI50 [10]: 33.7 µM (inactive)
- GI50 [11]: 2.07 µM (inactive)
- GI50 [12]: 4.99 µM (inactive)
- GI50 [13]: 10.2 µM (inactive)
- GI50 [14]: 14.6 µM (inactive)
- GI50 [15]: 7.1 µM (inactive)
- GI50 [16]: 2.94 µM (inactive)
- GI50 [17]: 12.6 µM (inactive)
- GI50 [18]: 6.67 µM (inactive)
- GI50 [19]: 19.5 µM (inactive)
- GI50 [20]: 20.4 µM (inactive)

SMILES: Cc1ccc(S(=O)(=O)C2=Cc3ccc(C(F)(F)F)cc3C2(O)c2cccc(C(F)(F)F)c2)cc1 (stereo not given)
- GI50 [1]: 2.65 µM (inactive)
- GI50 [2]: 2.23 µM (inactive)
- GI50 [3]: 1.88 µM (inactive)
- GI50 [4]: 5.83 µM (inactive)
- GI50 [5]: 2.33 µM (inactive)
- GI50 [6]: 2.71 µM (inactive)
- GI50 [7]: 1.66 µM (inactive)
- GI50 [8]: 2.46 µM (inactive)
- GI50 [9]: 2.47 µM (inactive)
- GI50 [10]: 2.15 µM (inactive)
- GI50 [11]: 4.05 µM (inactive)
- GI50 [12]: 1.65 µM (inactive)
- GI50 [13]: 1.41 µM (inactive)
- GI50 [14]: 2.39 µM (inactive)
- GI50 [15]: 2.43 µM (inactive)
- GI50 [16]: 1.88 µM (inactive)
- GI50 [17]: 2.3 µM (inactive)
- GI50 [18]: 2 µM (inactive)
- GI50 [19]: 1.87 µM (inactive)
- GI50 [20]: 1.79 µM (inactive)
